Experimental data reported in ChEMBL document CHEMBL5465560, “Selectivity Literature for EUbOPEN Chemogenomic Library” (2024).

What was measured:
[1] = molecular target: Transient receptor potential cation channel subfamily M member 6 (Homo sapiens) (UniProt Q9BX84); conditions: at 10 µM
[2] = molecular target: RAC-beta serine/threonine-protein kinase (Homo sapiens) (UniProt P31751); experiment: Selectivity interaction (Millipore kinase profiler) EUB0000124b AKT2; conditions: at 10 µM
[3] = molecular target: Ephrin type-A receptor 5 (Homo sapiens) (UniProt P54756); experiment: Selectivity interaction (Kinase panel (Invitrogen)) EUB0000639a EPHA5; conditions: at 200 nM
[4] = molecular target: Cyclin-dependent kinase 9 (Homo sapiens, UniProt P50750); experiment: Selectivity interaction (Kinase panel (Invitrogen)) EUB0000639a CDK9; conditions: at 200 nM
[5] = molecular target: Histamine H2 receptor (Homo sapiens) (UniProt P25021); experiment: Selectivity interaction (Eurofins CEREP Diversity Profile (receptors and ion channels)) EUB0000279b HRH2; conditions: at 10 µM
D(1A) dopamine receptor = D(1A) dopamine receptor (Homo sapiens, UniProt P21728); experiment: Selectivity interaction (Panel of non-epigenetic targets (kinases, GPCRs, ion channels, and transporters, Eurofins) ) EUB0000271b DRD1; conditions: at 1 µM
[6] = molecular target: Calcium/calmodulin-dependent protein kinase type II subunit alpha (Homo sapiens, UniProt Q9UQM7); experiment: Selectivity interaction (KinomeScan (DiscoverX)) EUB0000595a CAMK2A; conditions: at 10 µM
[7] = molecular target: Serine/threonine-protein kinase 26 (Homo sapiens, UniProt Q9P289); experiment: Selectivity interaction (KinomeScan (DiscoverX)) EUB0000229b STK26; conditions: at 10 µM
[8] = system: Epidermal growth factor receptor (Homo sapiens), P00533 [UNDEFINED MUTATION]; experiment: Selectivity interaction (KinomeScan (DiscoverX)) EUB0001079a EGFR; conditions: at 1 µM
[9] = molecular target: Phosphatidylinositol 4-phosphate 5-kinase type-1 gamma (Homo sapiens) (UniProt O60331); experiment: Selectivity interaction (KinomeScan (DiscoverX)) EUB0001079a PIP5K1C; conditions: at 1 µM
[10] = molecular target: Serine/threonine-protein kinase 24 (Homo sapiens) (UniProt Q9Y6E0); experiment: Selectivity interaction (KinomeScan (DiscoverX)) EUB0001079a STK24; conditions: at 1 µM
[11] = molecular target: T1, Serine/threonine-protein kinase 3 (Homo sapiens) (UniProt Q13188); experiment: Selectivity interaction (KinomeScan (DiscoverX)) EUB0001079a STK3; conditions: at 1 µM
T1 sequence (whole entry): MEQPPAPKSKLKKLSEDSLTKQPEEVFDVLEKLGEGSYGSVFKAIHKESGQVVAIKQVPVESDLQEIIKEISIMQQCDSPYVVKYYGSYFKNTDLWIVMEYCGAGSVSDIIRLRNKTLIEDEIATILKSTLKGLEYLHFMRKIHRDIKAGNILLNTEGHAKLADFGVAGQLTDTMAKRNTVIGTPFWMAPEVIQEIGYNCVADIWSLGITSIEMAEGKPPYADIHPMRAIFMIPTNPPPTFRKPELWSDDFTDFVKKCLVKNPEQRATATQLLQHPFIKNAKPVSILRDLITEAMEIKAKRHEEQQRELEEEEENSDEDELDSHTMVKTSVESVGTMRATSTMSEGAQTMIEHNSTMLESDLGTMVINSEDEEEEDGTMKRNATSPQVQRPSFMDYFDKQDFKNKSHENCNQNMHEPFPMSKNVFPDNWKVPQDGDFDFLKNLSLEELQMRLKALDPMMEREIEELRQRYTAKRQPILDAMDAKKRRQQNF

[12] = molecular target: Dual specificity protein kinase CLK1 (Homo sapiens, UniProt P49759); experiment: Selectivity interaction (KinomeScan (DiscoverX)) EUB0000655a CLK1; conditions: at 10 µM
[13] = molecular target: Tyrosine-protein kinase Blk (Homo sapiens) (UniProt P51451); experiment: Selectivity interaction (KinomeScan (DiscoverX)) EUB0000655a BLK; conditions: at 10 µM
SRSF protein kinase 1 = SRSF protein kinase 1 (Homo sapiens, UniProt Q96SB4); experiment: Selectivity interaction (Kinase panel (DSF assay)) EUB0001559a SRPK1
[14] = molecular target: Calcium/calmodulin-dependent protein kinase type II subunit delta (Homo sapiens) (UniProt Q13557); experiment: Selectivity interaction (Kinase panel (KiNativ target engagement assay in Jurkat cells)) EUB0001635a CAMK2D; assay type: cell-based; conditions: Selectivity number of off-targets 0.0, Selectivity number of targets 233.0, Source Knowledge https://www.sciencedirect.com/science/article/pii/S2451945619300674?via%3Dihub, at 1 µM
[15] = molecular target: Ribosomal protein S6 kinase alpha-5 (Homo sapiens) (UniProt O75582); experiment: Selectivity interaction (KinomeScan (DiscoverX)) EUB0000666a RPS6KA5; conditions: at 10 µM
[16] = molecular target: Ribosomal protein S6 kinase alpha-3 (Homo sapiens, UniProt P51812); experiment: Selectivity interaction (KinomeScan (DiscoverX)) EUB0000666a RPS6KA3; conditions: at 10 µM
[17] = molecular target: Cyclin-dependent kinase 14 (Homo sapiens) (UniProt O94921); experiment: Selectivity interaction (KinomeScan (DiscoverX)) EUB0000666a CDK14; conditions: at 10 µM
[18] = molecular target: T2, Mitogen-activated protein kinase kinase kinase kinase 3 (Homo sapiens) (UniProt Q8IVH8); experiment: Selectivity interaction (KinomeScan (DiscoverX)) EUB0000666a MAP4K3; conditions: at 10 µM
T2 sequence (whole entry): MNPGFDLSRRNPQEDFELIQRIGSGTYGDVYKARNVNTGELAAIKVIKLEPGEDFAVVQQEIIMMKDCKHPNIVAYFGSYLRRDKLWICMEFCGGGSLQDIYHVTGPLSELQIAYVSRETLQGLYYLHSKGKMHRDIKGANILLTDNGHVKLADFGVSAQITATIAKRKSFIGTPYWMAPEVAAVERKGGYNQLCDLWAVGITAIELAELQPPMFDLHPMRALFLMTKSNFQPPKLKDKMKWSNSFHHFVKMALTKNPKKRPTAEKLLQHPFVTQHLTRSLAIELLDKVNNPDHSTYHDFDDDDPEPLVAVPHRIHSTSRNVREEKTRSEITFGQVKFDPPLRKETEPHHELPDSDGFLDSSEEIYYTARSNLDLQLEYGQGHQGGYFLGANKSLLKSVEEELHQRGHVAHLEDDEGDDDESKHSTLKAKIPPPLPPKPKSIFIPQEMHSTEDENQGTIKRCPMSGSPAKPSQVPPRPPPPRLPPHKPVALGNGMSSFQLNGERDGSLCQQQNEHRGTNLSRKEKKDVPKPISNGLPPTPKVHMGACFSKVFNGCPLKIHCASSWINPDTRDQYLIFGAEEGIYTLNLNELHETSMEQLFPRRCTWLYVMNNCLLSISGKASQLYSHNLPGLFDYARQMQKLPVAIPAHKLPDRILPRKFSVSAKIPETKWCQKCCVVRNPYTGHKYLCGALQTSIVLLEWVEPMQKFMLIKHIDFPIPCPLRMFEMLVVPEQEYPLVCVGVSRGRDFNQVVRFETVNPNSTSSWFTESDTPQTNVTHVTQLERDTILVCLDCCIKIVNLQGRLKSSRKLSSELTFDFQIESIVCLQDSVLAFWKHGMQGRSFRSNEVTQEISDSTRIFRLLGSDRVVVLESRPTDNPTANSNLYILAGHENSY

Calcium/calmodulin-dependent protein kinase type II subunit delta (Homo sapiens), sequence (Q13557 whole entry): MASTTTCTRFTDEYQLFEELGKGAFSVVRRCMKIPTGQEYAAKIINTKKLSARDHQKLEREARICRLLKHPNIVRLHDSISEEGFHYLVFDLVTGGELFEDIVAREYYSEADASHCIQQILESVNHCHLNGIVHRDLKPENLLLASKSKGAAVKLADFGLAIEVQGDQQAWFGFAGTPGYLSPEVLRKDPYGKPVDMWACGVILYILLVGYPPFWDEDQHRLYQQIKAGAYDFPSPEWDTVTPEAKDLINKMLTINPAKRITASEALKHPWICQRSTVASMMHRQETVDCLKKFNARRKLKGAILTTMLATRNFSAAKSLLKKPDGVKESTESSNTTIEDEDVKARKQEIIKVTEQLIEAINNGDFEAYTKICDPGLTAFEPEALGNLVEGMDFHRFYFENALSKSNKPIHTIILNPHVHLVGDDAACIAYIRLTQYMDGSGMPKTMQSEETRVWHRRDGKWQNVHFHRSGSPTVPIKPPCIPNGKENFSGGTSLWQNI
Ephrin type-A receptor 5 (Homo sapiens), sequence (P54756 whole entry): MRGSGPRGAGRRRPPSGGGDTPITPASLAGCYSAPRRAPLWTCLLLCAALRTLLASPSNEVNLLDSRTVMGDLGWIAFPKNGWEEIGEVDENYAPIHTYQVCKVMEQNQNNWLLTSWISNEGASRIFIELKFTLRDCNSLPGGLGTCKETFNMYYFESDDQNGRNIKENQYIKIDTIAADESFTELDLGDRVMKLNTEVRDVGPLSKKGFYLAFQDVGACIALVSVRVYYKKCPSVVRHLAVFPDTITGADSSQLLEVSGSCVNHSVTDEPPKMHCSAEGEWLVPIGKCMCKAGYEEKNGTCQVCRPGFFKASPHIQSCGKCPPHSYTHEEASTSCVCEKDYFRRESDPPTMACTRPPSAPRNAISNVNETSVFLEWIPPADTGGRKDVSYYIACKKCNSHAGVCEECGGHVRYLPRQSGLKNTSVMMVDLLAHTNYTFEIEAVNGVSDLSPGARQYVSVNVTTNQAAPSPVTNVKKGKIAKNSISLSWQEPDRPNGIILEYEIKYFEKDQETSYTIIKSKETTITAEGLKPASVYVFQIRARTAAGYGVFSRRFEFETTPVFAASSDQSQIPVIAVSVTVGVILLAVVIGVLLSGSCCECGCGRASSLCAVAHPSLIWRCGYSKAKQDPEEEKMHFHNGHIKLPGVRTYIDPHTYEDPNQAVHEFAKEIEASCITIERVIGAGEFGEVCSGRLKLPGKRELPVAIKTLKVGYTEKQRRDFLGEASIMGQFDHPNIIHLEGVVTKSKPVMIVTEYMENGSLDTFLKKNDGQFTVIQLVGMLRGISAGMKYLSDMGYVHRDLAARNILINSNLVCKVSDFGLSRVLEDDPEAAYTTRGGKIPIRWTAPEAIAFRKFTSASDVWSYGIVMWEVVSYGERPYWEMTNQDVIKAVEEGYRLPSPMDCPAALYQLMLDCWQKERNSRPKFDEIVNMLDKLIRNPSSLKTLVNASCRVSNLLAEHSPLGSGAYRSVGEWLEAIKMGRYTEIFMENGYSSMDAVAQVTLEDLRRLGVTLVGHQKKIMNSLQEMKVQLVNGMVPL
RAC-beta serine/threonine-protein kinase (Homo sapiens), sequence (P31751 whole entry): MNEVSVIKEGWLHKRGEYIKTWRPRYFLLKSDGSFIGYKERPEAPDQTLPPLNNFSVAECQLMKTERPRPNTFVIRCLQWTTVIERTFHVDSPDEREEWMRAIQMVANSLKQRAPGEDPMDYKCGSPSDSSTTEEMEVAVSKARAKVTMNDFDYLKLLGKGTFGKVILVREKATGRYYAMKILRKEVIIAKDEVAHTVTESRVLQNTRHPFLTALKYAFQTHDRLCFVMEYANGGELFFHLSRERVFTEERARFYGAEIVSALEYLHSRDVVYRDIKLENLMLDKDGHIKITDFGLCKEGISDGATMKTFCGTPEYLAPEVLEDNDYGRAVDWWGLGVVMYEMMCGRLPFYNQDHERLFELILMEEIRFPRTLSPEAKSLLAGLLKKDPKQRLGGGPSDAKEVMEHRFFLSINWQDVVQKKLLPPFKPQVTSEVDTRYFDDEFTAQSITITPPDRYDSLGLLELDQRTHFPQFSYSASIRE
SRSF protein kinase 1, sequence (Q96SB4 whole entry): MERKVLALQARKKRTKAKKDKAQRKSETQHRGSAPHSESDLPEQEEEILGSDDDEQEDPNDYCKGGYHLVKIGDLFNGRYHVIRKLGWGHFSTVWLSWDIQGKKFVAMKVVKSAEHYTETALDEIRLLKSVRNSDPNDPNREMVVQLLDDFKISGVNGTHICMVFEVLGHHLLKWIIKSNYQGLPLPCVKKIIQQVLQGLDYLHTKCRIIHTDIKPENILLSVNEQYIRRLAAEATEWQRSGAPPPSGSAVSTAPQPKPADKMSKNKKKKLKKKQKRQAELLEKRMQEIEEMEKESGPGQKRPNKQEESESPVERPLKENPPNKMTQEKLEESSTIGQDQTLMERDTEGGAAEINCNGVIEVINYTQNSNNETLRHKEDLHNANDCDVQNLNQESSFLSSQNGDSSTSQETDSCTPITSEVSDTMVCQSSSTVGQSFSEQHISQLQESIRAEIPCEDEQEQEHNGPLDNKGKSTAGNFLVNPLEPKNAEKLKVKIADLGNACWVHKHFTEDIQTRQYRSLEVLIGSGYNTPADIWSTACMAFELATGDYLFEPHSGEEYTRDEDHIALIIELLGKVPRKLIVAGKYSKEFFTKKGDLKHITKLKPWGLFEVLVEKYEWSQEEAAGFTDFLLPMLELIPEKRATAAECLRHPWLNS
Serine/threonine-protein kinase 24 (Homo sapiens), sequence (Q9Y6E0 whole entry, looked up): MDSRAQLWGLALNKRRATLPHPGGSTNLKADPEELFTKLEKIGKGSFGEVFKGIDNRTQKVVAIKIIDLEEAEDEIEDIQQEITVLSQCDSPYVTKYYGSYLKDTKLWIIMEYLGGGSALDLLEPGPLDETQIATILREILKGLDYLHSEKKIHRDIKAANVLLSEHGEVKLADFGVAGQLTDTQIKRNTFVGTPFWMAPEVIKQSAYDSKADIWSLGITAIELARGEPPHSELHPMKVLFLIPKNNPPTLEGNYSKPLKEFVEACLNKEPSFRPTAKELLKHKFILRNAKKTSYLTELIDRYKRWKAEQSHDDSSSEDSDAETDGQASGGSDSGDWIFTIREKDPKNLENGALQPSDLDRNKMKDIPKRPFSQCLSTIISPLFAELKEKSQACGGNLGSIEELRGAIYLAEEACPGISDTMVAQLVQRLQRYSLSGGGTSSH
Epidermal growth factor receptor (Homo sapiens), P00533 [UNDEFINED MUTATION], sequence (P00533 whole entry, looked up, change not shown): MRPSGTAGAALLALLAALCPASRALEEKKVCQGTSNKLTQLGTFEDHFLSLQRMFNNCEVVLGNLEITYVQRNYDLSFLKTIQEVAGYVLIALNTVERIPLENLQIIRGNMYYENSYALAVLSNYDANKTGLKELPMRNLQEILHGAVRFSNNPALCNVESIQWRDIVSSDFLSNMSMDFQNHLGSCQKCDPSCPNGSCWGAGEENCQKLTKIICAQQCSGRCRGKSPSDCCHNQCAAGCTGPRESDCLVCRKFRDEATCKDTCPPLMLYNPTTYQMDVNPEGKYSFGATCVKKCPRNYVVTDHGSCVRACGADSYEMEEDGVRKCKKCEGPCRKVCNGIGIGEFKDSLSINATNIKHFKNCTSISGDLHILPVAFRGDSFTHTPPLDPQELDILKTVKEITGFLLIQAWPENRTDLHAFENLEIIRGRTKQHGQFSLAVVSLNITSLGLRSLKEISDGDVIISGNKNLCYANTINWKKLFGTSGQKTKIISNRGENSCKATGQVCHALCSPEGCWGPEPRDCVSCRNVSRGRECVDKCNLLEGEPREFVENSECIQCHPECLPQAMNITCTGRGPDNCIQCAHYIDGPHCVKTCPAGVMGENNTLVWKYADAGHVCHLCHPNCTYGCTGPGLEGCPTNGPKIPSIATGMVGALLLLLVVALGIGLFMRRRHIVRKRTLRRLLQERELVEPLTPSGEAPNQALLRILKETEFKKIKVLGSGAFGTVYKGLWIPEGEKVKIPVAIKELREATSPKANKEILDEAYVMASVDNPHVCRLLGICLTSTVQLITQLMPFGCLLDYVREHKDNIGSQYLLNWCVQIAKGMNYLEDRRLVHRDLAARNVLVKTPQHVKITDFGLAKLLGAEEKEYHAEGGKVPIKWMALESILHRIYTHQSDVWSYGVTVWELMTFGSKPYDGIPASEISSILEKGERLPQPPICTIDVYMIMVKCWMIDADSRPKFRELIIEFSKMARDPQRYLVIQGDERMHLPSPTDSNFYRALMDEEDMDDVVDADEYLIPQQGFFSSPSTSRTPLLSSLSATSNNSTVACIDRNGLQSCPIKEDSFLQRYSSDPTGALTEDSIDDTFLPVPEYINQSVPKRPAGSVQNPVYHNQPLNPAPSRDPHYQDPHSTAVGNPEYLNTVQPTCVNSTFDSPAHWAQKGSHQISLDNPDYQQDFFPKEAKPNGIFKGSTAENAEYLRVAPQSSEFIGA
Dual specificity protein kinase CLK1, sequence (P49759 whole entry, looked up): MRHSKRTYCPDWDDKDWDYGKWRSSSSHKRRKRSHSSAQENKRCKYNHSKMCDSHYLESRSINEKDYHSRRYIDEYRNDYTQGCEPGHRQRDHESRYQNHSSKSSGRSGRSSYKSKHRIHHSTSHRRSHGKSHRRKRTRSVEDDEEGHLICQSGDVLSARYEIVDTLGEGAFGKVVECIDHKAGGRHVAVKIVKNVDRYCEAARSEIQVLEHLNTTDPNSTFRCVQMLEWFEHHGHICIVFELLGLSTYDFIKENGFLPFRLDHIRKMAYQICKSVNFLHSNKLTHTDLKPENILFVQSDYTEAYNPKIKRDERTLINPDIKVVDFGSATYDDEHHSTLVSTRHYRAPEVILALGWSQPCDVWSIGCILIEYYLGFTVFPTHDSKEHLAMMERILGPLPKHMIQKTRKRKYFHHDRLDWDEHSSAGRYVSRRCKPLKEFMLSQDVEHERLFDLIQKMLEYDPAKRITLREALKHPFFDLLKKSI

Compound: Cc1cc([C@@H](C)Nc2ccccc2C(=O)O)c2nc(N3CCOCC3)cc(=O)n2c1 [AZD-6482]
- % of control [1]: 100%

Compound: CC(=O)Nc1cccc(-n2c(=O)n(C3CC3)c(=O)c3c(Nc4ccc(I)cc4F)n(C)c(=O)c(C)c32)c1
- % of control [2]: 103%

Compound: CC[C@@H]1[C@H](F)C(=O)N[C@@H]1COc1nccc2cc(C(N)=O)c(OC)cc12 [ZIMLOVISERTIB]
- % of inhibition [3]: -0.246%
- % of inhibition [4]: 4.37%

Compound: CC(=O)c1cc(-c2ccccc2OCC2CC2)c2ncccn12
- % of control [5]: 115%

Compound: Cc1cc(C)cc([C@@H]2c3cc(C)ccc3NC(=O)CN2C(=O)c2ccc(Br)s2)c1
- % of inhibition (D(1A) dopamine receptor): 9%

Compound: COCC(=O)NC/C=C/c1ccc2ncnc(Nc3ccc(Oc4ccc(C)nc4)c(C)c3)c2c1 [CP-724714]
- % of control [6]: 93%

Compound: COc1cc(N(C)c2ccnc3ccc(C(F)(F)F)cc23)cc(OC)c1OC
- % binding [7]: 99%

Compound: Nc1cnc(N2CCc3cc(S(=O)(=O)Nc4c(F)cc(Cl)cc4F)cc(N4CCCC4=O)c32)nc1 [TP-020n]
- % of control [8]: 71%
- % of control [9]: 75%
- % of control [10]: 100%
- % of control [11]: 96%

Compound: CN(C)CCOc1ccc(-c2nc(-c3ccncc3)c(-c3ccc4c(c3)CC/C4=N\O)[nH]2)cc1
- % of control [12]: 77%
- % of control [13]: 59%

Compound: CN(C(=O)c1cnn2cccnc12)c1cc2c(cc1N1CCOCC1)C(=O)N(C[C@@H](F)C(C)(C)O)C2
- dTM (SRSF protein kinase 1): 0.2 K

Compound: C=CC(=O)Nc1ccc(C(=O)Nc2[nH]nc3c2CN(C(=O)N[C@H](CN(C)C)c2ccccc2)C3(C)C)cc1
- % of engagement [14]: 34.1%

Compound: O=C(NOC[C@H](O)CO)c1ccc(F)c(F)c1Nc1ccc(I)cc1F
- % of control [15]: 100%
- % of control [16]: 100%
- % of control [17]: 100%
- % of control [18]: 87%
